Reference: patent US10413529B2, “Methods of inhibiting cataracts and presbyopia” (UNIVERSITY OF MASSACHUSETTS, priority 2013, dated 2019)

Biological target: T1, γS-crystallin (Homo sapiens, UniProt P22914)
T1 construct: 6xHis (N); made in house; host or cells: M15pRep E. coli (pQe1 plasmid from King Labs, MIT)
T1 sequence (P22914 1-178): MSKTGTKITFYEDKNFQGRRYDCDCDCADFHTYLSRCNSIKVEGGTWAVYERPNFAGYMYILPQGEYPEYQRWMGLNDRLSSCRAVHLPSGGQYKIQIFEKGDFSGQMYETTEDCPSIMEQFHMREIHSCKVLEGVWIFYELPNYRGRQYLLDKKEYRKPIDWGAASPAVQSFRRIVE
Test: Dynamic light scattering (DLS) of γS-crystallin, hydrodynamic radius of monomer and aggregate
Format: biochemical
Details: γS modified with the agent
Method: The scattering wave vector is defined as q=4πn sin (θ/2)/λ, where θ is the scattering angle, and λ=514.5, the wavelength of the argon laser in vacuum, and n is 1.33, the refractive index of water. The temperature of the sample was held at constant temperature of 4 to 37±0.1° C. by a circulating water bath. The correlation function was analyzed using CONTIN analysis [NT] times for the correlation functions at measured angles. […] The delay times (τ) were converted to Γ and graphed versus q^2. The slope of the fitted line is the diffusion coefficient (D). […] All solutions were filtered with 0.22 μm hydrophobic PVDF membranes (Fisher Scientific) into 10 mm diameter borosilicate glass tubes and sealed. Solutions were allowed to equilibrate for thirty minutes prior to measuring light scattering. […] The pH and salt concentration were adjusted via overnight dialysis at 4° C. and their final concentration adjusted to 1.0 g/L. […] The scattering wave vector is defined as q=4πn sin (θ/2)/λ, where θ is the scattering angle, and λ=514.5, the wavelength of the argon laser in vacuum, and n is 1.33, the refractive index of water. The temperature of the sample was held at constant temperature of 4 to 37±0.1° C. by a circulating water bath. The correlation function was analyzed using CONTIN analysis [NT] times for the correlation functions at measured angles. […] The delay times (τ) were converted to Γ and graphed versus q^2. The slope of the fitted line is the diffusion coefficient (D). […] All solutions were filtered with 0.22 μm hydrophobic PVDF membranes (Fisher Scientific) into 10 mm diameter borosilicate glass tubes and sealed. Solutions were allowed to equilibrate for thirty minutes prior to measuring light scattering.

NCCOCCOCCOCCOCCC(=O)O [CAPEG4]
Rh (fast mode (monomer), 37° C.): 3 nm | Rh (fast mode (monomer), 37° C., listed as CAPEG): 2.9 nm | Rh (fast mode (monomer, first Rh column), 22° C.): 2.8 nm | Rh (fast mode (monomer, first Rh column), 22° C., listed as CAPEG): 2.9 nm
